Data published in ChEMBL document CHEMBL1123868, “Synthesis of a series of compounds related to betaxolol, a new beta 1-adrenoceptor antagonist with a pharmacological and pharmacokinetic profile optimized for the treatment of chronic cardiovascular diseases” (J Med Chem, 1987).
Active and inactive are the calls of the source. No cut-off for these calls is given here.

Assays:
[1] = organism: Rattus norvegicus; assay: Antihypertensive activity expressed as percentage of base-line systolic blood pressure of base-line values in spontaneously hypertensive rats (SHR) was reported after 24 hr; assay type: functional, Artery; note: test concentration or dose not given here
[2] = organism: Rattus norvegicus; assay: Antihypertensive activity expressed as percentage of base-line systolic blood pressure of base-line values in spontaneously hypertensive rats (SHR) was reported after 2 hr; assay type: functional, Artery; note: test concentration or dose not given here
[3] = organism: Rattus norvegicus; assay: Antihypertensive activity expressed as percentage of base-line systolic blood pressure of base-line values in spontaneously hypertensive rats (SHR) was reported after 4 hr; assay type: functional, Artery; note: test concentration or dose not given here
[4] = target: Beta-1 adrenergic receptor (Rattus norvegicus) (UniProt P18090); settings: read-out: pA2 (converted)
[5] = target: Beta-1 adrenergic receptor (Rattus norvegicus) (UniProt P18090); assay: Antagonist activity was determined against beta-1 adrenergic receptor in spontaneously beating rat atria; assay type: functional

Sequence of Beta-1 adrenergic receptor (Rattus norvegicus) (P18090 whole entry, looked up): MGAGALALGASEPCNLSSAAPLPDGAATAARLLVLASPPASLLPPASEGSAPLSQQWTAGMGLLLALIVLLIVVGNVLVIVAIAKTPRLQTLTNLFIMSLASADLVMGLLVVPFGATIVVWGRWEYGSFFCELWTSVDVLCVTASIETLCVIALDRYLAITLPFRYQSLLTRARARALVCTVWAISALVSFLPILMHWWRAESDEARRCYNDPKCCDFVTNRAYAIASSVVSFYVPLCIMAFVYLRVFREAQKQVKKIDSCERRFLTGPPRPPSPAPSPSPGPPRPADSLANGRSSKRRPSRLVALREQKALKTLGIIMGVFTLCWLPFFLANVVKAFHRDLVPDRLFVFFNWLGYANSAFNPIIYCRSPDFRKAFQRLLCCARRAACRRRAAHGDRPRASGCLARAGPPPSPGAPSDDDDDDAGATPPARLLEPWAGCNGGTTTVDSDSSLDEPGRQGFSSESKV

Row | Kb [4] [nM] | NA [5] | SMILES | Baseline systolic BP [1] [%] | Baseline systolic BP [2] [%] | Baseline systolic BP [3] [%]
1 |  |  | CC(C)NCC(O)COc1ccc(CCS(=O)(=O)CC2CCCO2)cc1.Cl (stereo not given) | -3 | -22 | -16
2 |  |  | CC(C)NCC(O)COc1ccc(CCOCC2CCCCC2)cc1.Cl (stereo not given) | -7 | -14 | -18
3 |  |  | CC(C)NCC(O)COc1ccc(CCOCC2CCCC2)cc1 (stereo not given) | -8 | -21 | -16
4 |  |  | CC(CCc1ccccc1)NCC(O)COc1ccc(CCOCC2CCC2)cc1 (stereo not given) | 2 | -1 | 1
5 |  |  | CC(C)NCC(O)COc1cccc2ccccc12 (stereo not given) [PROPRANOLOL] | -9 | 0 | 0
6 |  |  | CC(=O)NCCNCC(O)COc1ccc(CCOCC2CCC2)cc1.Cl (stereo not given) | -7 | -6 | -8
7 |  |  | CC(C)NCC(O)COc1ccc(CCS(=O)(=O)CC2CCC2)cc1.Cl (stereo not given) | 1 | -4 | -13
8 |  |  | CC(CCc1ccc(F)cc1)NCC(O)COc1ccc(CCOCC2CCC2)cc1 (stereo not given) | -2 | -4 | -10
9 |  |  | CC(C)NCC(O)COc1ccc(CCOCC2CC2)cc1.Cl (stereo not given) [BETAXOLOL HYDROCHLORIDE] | -6 | -22 | -19
10 |  |  | CC(C)NCC(O)COc1ccc(CCOCC2CCC2)cc1.Cl (stereo not given) | -4 | -16 | -16
11 |  |  | COc1ccc(CCNCC(O)COc2ccc(CCOCC3CCC3)cc2)cc1OC.Cl (stereo not given) | -6 | -7 | -5
12 |  |  | COCCc1ccc(OCC(O)CNC(C)C)cc1 (stereo not given) [METOPROLOL] | -12 | 4 | -2
13 | 186 |  | CC(=O)Nc1ccc(OCC(O)CNC(C)C)cc1 (stereo not given) [PRACTOLOL] |  |  | 
14 |  |  | CC(C)NCC(O)COc1ccc(CCSCC2CCC2)cc1 (stereo not given) | -3 | -2 | -6
15 |  |  | CC(C)NCC(O)COc1ccc(CCOC2CCCC2)cc1 (stereo not given) | -4 | -17 | -11
16 |  |  | CC(C)NCC(O)COc1ccc(C[S+]([O-])CC2CC2)cc1 (stereo not given) | -2 | -4 | -8
17 |  |  | CC(C)NCC(O)COc1ccc(CCS(=O)(=O)CC2CCCCC2)cc1.Cl (stereo not given) | -2 | -6 | -2
18 |  |  | CC(C)NCC(O)COc1ccc(COCC2CCC2)cc1.Cl (stereo not given) | -1 | -9 | -6
19 |  |  | Cl.OC(CNC1CC1)COc1ccc(CCOCC2CCC2)cc1 (stereo not given) | 0 | 0 | -5
20 |  |  | CC(C)NC[C@H](O)COc1ccc(CCOCC2CC2)cc1 [LEVOBETAXOLOL] | -13 | -10 | -12
21 |  |  | CC(CC#N)NCC(O)COc1ccc(CCOCC2CCC2)cc1.Cl (stereo not given) | -2 | -2 | -4
22 |  |  | CC(C)NCC(O)COc1ccc(COCC2CC2)cc1 (stereo not given) | -6 | -4 | -3
23 |  |  | CC(C)NCC(O)COc1ccc(CCOCC2CC2)cc1 (stereo not given) [BETAXOLOL] | 3 | 3 | 5
24 |  |  | CC(C)NCC(O)COc1ccc(CCCOCC2CCC2)cc1.O=C(O)C(=O)O (stereo not given) | -1 | -11 | -11
25 |  | inactive | CC(C)NCC(O)COc1ccc(C[S+]([O-])CC2CCCC2)cc1 (stereo not given) | -1 | -5 | -7
26 |  |  | CC(C)NCC(O)COc1ccc(CCOC2CCCC2)cc1.Cl (stereo not given) | -7 | -8 | -16
27 |  |  | CC(C)NCC(O)COc1ccc(CCOC2CCCCC2)cc1 (stereo not given) | -12 | 4 | -2
